Reference: US11478526B2, “Methods of reducing neuroinflammation or toxicity induced by amyloid beta (abeta) using glucocorticoid induced leucine zipper (GILZ) analog peptides” (INDIANA UNIVERSITY RESEARCH AND TECHNOLOGY CORPORATION, priority 2016, dated 2022)

What was measured:
[1] = tested on: primary human fetal brain cells (HFB); experiment: CTG viability of primary human fetal brain cultures with or without Aβ1-42; type: cell-based; conditions: for viability of Aβ1-42 exposed HFB cells: Aβ1-42 10 μM
Method: Functional assays in human primary mixed brain cultures (HFB). Primary cultures of mixed HFB were prepared from the brain parenchyma of aborted fetuses (80-100 days gestational age). The tissues were obtained from the Birth Defects Research Laboratory (BDRL) at the University of Washington, Seattle with approval from the Indiana University Institutional Review Board (IRB). The IRB determined that the use of anonymous human biological materials received from this depository is not considered as human subjects research (supplementary document, s1). The NIH funded BDRL tissue distribution program operates separately in full compliance with all relevant state and federal laws and regulations with donors providing written informed consent.
Fetal brain materials (10-20 g) were shipped overnight in chilled Hibernate-E medium (Invitrogen) supplemented with B27 (Invitrogen), GlutaMAX (Invitrogen) and antibiotic-antimycotic solution (Cellgro). HFB were prepared and cultured as described. Briefly, cells were cultured in Neurobasal medium (Invitrogen) without phenol red supplemented with 1×B27, […] GlutaMAX, 1×antibiotic cocktail, 5 ng/mL recombinant fibroblast growth factor 2 (bFGF) (Invitrogen), and 2 μL/mL Normocin (InVivoGen, San Diego, Calif., USA). Cells were counted and seeded onto poly-D-lysine (Sigma-Aldrich) coated 24-well plates (Corning, Lowell, Mass., USA) at 1.5×10^5 cells per well and maintained at 37° C. in a 5% CO2 incubator. Half media changes were performed every 4th day of culture and morphology was monitored via phase contrast microscopy. Culture medium was removed from cells on day 17 (DIV17) and replaced with Neurobasal medium with B27. […] Cells and conditioned media were harvested and stored for further analysis. Relative ATP concentration was measured using the CTG kit (Promega). Data is presented as ΔRLU=RLU of Aβ1-42 exposed cells-RLU unexposed cells. Conditioned media collected were assessed for specific cytokines using the OptEIA kits (BD Biosciences). Nuclear and cytoplasmic fractions were extracted using the CelLytic™ NuCLEAR™ Extraction Kit (Sigma) following manufacturer's protocol. Five microgram of nuclear extracts was incubated in a 96-well plate coated with oligonucleotides containing the NF-κβ consensus nucleotide sequence (5′-[…]-3′) (SEQ ID NO: 30). The activated NF-κβ bound to DNA was detected by anti-p65 antibody followed by a peroxidase coupled secondary antibody and substrate using the TransAM kit protocol (Active Motif). Nuclear extracts of Raji cells was used as the positive control.
(§1) Select PGA protects against Aβ1-42 induced toxicity, prevents p65 activation and cytokine response in human fetal brain (HFB) cells. […] Viability in terms of relative luminescent Units (RLU) was quantified using a Glowmax luminometer (Promega, Wis.). Data are presented as ARLU=RLU of Aβ1-42 exposed cells-RLU of unexposed cells. […] The mean RLU of vehicle treated HFB varied between 7352.75+/−1265.2 and 16157.5+/−4950. Average RLU of cultures exposed to Aβ1-42 varied between 6067.25+/−903.05 and 11574.25+/−4139.3 in different experiments. […] The culture supernatants were assessed for cytokines by ELISA (R&D Systems, Minn.). […] Primary HFB cultured similarly and harvested at the end of 4 hours was assessed for nuclear p65 using TransAM kit for NF-κB p65 (Active Motif, Calif.).

Aβ1-42 exposed HFB cells = experiment: Cytokines in culture medium of Aβ1-42 exposed HFB; type: cell-based, human; conditions: 50 μM peptide
Method: Fetal brain materials (10-20 g) were shipped overnight in chilled Hibernate-E medium (Invitrogen) supplemented with B27 (Invitrogen), GlutaMAX (Invitrogen) and antibiotic-antimycotic solution (Cellgro). HFB were prepared and cultured as described. Briefly, cells were cultured in Neurobasal medium (Invitrogen) without phenol red supplemented with 1×B27, […] GlutaMAX, 1×antibiotic cocktail, 5 ng/mL recombinant fibroblast growth factor 2 (bFGF) (Invitrogen), and 2 μL/mL Normocin (InVivoGen, San Diego, Calif., USA). Cells were counted and seeded onto poly-D-lysine (Sigma-Aldrich) coated 24-well plates (Corning, Lowell, Mass., USA) at 1.5×10^5 cells per well and maintained at 37° C. in a 5% CO2 incubator. Half media changes were performed every 4th day of culture and morphology was monitored via phase contrast microscopy. Culture medium was removed from cells on day 17 (DIV17) and replaced with Neurobasal medium with B27. Appropriate wells were then added vehicle, or carrier peptide or individual GA or control peptide (at 50 μM) for 30 min followed by exposure to Aβ1-42 at a final concentration of 10 μM/well and incubated for 4 hours or 48 hours. Cells and conditioned media were harvested and stored for further analysis. Relative ATP concentration was measured using the CTG kit (Promega). Data is presented as ΔRLU=RLU of Aβ1-42 exposed cells-RLU unexposed cells. Conditioned media collected were assessed for specific cytokines using the OptEIA kits (BD Biosciences). Nuclear and cytoplasmic fractions were extracted using the CelLytic™ NuCLEAR™ Extraction Kit (Sigma) following manufacturer's protocol. Five microgram of nuclear extracts was incubated in a 96-well plate coated with oligonucleotides containing the NF-κβ consensus nucleotide sequence (5′-[…]-3′) (SEQ ID NO: 30). The activated NF-κβ bound to DNA was detected by anti-p65 antibody followed by a peroxidase coupled secondary antibody and substrate using the TransAM kit protocol (Active Motif). Nuclear extracts of Raji cells was used as the positive control.
as §1, with “16157.5+/−4950.” for “16157.5+/−4950. Average RLU of cultures exposed to Aβ1-42 varied between 6067.25+/−903.05 and 11574.25+/−4139.3 in different experiments.”

[2] = 50 μM peptide, vs untreated Aβ1-42 exposed cultures
[3] = PGA at IC50 concentration, 24 hours

Substance	viability of Aβ1-42 exposed HFB cells [1, 2]	relative concentration of IL-6 in culture medium (Aβ1-42 exposed HFB cells)	relative concentration of IL-10 in culture medium (Aβ1-42 exposed HFB cells)	tolerance of HFB cultures (ΔRLU, CTG) ([1]; PGA at IC50 concentration)	viability of Aβ1-42 exposed HFB cells [1, 3]
Ac-EPAPESPQV-NH2 [GA-2]	significantly higher	significantly lower	significantly lower		
Ac-EPAPESPQV-NH2 [PGA-4]				well tolerated	significantly higher
Ac-EPAPLAPYG-NH2 [GA-1]	significantly higher	significantly lower	significantly lower		
Ac-EPAPLAPYG-NH2 [PGA-2]				well tolerated	significantly higher
